Earlier results on one compound are cited in patent US9456994B2, “Efficient process for the preparation of lycopene containing oleoresin and lycopene crystals for human consumption” (OMNIACTIVE HEALTH TECHNOLOGIES LIMITED, priority 2011, dated 2016).

For data set [1] the following is noted: organic solvents.

On to `CC(C)=CCC/C(C)=C/C=C/C(C)=C/C=C/C(C)=C/C=C/C=C(C)/C=C/C=C(C)/C=C/C=C(\C)CCC=C(C)C` [lycopene, Lycopene], for which the lycopene lost (heated at 100 degree C in the presence of carbon dioxide) was 5%. Moreover, the lycopene degraded entry (heated at 100 degree C in the presence of oxygen) is given as “More than 30%”. The solubility result in data set [1] is “soluble in chloroform, hexane, benzene, carbon disulphide, acetone, petroleum ether”.
